Our source for the Kd values is ChEMBL document CHEMBL3991601, “The target landscape of clinical kinase drugs” (Science, 2017).

Active and inactive are the calls of the source.

Experiment [1] concerns the target Bone morphogenetic protein receptor type-1A (Homo sapiens, UniProt P36894).
Experiment [2] addresses T1, Ferrochelatase, mitochondrial (Homo sapiens, UniProt P22830).
T1 sequence (P22830 whole entry): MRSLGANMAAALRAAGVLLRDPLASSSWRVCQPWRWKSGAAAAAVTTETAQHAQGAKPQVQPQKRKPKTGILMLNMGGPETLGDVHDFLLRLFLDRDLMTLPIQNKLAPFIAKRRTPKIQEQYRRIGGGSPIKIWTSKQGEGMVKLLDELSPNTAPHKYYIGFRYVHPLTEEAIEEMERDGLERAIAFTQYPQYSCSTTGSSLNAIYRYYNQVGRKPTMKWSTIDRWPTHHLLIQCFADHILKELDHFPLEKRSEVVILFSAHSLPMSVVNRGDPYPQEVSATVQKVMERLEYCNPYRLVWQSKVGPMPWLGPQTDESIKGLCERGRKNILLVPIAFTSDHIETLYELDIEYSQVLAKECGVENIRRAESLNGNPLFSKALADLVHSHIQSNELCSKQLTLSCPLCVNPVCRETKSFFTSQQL

Experiment [3] concerns the target T2, Glycine--tRNA ligase (Homo sapiens, UniProt P41250).
T2 sequence (P41250 whole entry): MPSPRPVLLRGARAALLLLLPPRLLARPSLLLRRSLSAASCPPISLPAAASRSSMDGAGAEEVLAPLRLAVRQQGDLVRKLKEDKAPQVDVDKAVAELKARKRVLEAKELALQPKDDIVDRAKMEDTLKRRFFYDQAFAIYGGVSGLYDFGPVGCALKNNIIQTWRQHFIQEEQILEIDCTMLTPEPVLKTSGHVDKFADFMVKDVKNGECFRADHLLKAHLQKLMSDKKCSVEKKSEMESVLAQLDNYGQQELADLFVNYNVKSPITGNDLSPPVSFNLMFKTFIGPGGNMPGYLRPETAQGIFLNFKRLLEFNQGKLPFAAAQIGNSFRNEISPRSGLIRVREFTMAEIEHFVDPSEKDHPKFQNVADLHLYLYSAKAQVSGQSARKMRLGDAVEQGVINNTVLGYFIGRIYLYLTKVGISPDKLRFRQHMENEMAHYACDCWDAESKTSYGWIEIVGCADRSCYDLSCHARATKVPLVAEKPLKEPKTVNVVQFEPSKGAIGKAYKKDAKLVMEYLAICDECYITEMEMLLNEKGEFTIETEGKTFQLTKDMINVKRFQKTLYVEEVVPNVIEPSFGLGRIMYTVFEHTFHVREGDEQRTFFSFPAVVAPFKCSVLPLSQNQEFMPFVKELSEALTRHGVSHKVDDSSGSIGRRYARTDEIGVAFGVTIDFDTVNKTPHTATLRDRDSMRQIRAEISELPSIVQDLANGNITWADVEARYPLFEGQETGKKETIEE

Experiment [4] concerns the target LIM domain kinase 2 (Homo sapiens, UniProt P53671).
The target in experiment [5] is Mitogen-activated protein kinase kinase kinase 1 (Homo sapiens, UniProt Q13233).
Chain of Mitogen-activated protein kinase kinase kinase 1 (Q13233 whole entry): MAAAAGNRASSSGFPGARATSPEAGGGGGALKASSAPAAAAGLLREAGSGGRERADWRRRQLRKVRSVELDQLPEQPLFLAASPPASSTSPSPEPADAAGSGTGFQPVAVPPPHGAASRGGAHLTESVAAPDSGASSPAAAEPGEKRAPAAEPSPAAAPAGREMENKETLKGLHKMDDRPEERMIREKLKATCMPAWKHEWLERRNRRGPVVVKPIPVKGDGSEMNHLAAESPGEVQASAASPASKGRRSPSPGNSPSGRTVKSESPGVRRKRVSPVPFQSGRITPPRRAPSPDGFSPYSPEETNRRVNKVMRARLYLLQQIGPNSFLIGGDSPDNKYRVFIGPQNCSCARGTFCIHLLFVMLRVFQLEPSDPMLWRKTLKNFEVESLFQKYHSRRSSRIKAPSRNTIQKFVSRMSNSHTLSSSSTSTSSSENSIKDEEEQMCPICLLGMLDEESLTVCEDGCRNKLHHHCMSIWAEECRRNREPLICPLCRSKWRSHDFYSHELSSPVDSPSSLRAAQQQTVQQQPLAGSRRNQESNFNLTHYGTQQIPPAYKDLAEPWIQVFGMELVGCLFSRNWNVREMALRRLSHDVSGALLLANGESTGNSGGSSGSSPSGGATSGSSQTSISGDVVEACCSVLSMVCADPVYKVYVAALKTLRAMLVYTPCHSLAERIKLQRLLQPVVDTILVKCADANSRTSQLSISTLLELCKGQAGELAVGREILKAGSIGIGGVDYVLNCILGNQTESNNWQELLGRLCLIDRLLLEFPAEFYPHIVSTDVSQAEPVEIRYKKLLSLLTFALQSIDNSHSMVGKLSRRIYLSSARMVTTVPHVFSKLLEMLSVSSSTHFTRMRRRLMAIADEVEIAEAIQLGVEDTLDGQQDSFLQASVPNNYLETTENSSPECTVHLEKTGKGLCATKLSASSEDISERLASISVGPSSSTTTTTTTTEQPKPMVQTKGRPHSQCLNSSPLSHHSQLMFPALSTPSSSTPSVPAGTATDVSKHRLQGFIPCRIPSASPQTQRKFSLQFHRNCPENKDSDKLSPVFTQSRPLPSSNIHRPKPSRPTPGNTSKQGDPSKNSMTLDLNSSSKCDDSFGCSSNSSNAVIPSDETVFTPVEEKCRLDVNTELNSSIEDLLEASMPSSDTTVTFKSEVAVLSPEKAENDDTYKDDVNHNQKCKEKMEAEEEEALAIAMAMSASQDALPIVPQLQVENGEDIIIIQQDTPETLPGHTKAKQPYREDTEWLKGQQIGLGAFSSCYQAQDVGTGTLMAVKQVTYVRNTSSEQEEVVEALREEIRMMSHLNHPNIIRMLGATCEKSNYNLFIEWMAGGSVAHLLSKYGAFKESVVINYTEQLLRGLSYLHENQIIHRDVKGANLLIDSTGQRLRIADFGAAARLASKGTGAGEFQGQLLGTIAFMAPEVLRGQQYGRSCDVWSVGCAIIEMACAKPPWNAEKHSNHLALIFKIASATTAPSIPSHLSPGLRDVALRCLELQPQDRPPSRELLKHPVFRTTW
The target of experiment [6] is T3, Rab-like protein 3 (Homo sapiens, UniProt Q5HYI8).
T3 sequence (Q5HYI8 whole entry): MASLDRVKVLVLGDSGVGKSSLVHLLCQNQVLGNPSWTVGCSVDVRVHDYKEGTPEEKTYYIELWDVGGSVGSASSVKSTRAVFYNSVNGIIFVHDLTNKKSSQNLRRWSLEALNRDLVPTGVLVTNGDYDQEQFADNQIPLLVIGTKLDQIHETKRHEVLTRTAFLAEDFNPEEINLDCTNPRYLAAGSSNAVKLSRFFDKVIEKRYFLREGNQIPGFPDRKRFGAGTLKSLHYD

The target in experiment [7] is Serine/threonine-protein kinase SIK3 (Homo sapiens, UniProt Q9Y2K2).
Chain of Serine/threonine-protein kinase SIK3 (Q9Y2K2 whole entry): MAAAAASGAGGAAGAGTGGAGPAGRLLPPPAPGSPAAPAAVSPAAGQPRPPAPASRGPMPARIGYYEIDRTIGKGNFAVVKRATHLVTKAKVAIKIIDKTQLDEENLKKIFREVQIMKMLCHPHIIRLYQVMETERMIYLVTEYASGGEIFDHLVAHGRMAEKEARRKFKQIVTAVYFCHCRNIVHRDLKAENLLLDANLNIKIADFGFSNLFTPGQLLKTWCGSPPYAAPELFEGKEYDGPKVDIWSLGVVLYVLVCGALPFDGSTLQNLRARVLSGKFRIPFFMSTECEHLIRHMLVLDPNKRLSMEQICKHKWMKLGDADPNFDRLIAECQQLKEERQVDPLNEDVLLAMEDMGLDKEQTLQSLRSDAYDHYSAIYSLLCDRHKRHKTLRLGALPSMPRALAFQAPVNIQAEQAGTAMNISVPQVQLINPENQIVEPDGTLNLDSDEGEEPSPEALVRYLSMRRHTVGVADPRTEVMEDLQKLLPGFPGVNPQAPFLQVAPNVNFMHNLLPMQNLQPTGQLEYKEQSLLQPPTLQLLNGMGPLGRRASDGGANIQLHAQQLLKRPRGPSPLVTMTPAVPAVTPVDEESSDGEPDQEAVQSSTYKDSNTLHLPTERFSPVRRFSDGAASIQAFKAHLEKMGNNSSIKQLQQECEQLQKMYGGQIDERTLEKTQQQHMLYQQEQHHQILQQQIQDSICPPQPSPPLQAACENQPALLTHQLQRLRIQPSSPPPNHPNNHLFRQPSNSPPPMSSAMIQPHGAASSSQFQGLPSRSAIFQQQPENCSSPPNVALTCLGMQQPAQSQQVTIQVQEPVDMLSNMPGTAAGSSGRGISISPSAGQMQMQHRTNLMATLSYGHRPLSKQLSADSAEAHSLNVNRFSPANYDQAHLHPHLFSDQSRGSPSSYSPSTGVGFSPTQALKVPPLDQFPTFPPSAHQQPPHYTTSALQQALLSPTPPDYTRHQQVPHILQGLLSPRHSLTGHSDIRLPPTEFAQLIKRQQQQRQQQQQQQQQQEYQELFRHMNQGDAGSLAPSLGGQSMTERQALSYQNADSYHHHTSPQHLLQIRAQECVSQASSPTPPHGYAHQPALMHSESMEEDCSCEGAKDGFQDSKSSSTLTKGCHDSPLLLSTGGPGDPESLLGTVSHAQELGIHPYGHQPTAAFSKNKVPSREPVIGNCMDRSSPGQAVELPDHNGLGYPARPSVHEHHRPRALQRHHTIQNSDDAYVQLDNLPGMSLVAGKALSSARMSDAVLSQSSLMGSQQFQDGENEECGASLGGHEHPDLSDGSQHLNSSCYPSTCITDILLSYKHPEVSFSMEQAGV
Experiment [8] has as its target T4, Exosome RNA helicase MTR4 (Homo sapiens, UniProt P42285).
T4 sequence (P42285 whole entry): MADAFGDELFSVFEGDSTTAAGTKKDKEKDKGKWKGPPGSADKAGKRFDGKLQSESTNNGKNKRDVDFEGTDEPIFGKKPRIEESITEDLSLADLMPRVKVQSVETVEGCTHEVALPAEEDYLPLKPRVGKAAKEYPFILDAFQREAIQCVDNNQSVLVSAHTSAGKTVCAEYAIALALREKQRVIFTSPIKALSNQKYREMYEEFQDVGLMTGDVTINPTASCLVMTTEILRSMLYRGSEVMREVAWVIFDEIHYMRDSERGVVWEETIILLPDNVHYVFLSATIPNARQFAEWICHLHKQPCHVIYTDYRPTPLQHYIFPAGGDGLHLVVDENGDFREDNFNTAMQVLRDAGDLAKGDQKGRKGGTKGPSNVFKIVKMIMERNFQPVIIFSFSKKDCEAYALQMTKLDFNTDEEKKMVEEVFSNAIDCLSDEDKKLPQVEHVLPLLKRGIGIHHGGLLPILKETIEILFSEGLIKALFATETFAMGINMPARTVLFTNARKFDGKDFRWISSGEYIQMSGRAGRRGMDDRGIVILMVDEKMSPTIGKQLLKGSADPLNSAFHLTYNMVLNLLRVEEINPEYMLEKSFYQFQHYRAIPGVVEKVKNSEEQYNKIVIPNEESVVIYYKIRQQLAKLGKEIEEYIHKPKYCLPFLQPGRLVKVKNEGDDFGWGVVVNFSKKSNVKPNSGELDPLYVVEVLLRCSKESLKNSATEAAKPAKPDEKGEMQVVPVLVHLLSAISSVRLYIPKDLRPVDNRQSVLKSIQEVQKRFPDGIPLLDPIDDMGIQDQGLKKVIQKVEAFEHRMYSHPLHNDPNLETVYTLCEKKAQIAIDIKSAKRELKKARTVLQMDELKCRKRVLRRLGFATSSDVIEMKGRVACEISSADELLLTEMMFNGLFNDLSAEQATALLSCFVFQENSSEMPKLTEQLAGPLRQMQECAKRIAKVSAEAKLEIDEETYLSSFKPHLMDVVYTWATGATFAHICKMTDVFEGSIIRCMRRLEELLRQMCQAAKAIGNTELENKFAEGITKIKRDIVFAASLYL

Experiment [9] deals with Rho-associated protein kinase 2 (Homo sapiens, UniProt O75116).
Chain of Rho-associated protein kinase 2 (O75116 whole entry): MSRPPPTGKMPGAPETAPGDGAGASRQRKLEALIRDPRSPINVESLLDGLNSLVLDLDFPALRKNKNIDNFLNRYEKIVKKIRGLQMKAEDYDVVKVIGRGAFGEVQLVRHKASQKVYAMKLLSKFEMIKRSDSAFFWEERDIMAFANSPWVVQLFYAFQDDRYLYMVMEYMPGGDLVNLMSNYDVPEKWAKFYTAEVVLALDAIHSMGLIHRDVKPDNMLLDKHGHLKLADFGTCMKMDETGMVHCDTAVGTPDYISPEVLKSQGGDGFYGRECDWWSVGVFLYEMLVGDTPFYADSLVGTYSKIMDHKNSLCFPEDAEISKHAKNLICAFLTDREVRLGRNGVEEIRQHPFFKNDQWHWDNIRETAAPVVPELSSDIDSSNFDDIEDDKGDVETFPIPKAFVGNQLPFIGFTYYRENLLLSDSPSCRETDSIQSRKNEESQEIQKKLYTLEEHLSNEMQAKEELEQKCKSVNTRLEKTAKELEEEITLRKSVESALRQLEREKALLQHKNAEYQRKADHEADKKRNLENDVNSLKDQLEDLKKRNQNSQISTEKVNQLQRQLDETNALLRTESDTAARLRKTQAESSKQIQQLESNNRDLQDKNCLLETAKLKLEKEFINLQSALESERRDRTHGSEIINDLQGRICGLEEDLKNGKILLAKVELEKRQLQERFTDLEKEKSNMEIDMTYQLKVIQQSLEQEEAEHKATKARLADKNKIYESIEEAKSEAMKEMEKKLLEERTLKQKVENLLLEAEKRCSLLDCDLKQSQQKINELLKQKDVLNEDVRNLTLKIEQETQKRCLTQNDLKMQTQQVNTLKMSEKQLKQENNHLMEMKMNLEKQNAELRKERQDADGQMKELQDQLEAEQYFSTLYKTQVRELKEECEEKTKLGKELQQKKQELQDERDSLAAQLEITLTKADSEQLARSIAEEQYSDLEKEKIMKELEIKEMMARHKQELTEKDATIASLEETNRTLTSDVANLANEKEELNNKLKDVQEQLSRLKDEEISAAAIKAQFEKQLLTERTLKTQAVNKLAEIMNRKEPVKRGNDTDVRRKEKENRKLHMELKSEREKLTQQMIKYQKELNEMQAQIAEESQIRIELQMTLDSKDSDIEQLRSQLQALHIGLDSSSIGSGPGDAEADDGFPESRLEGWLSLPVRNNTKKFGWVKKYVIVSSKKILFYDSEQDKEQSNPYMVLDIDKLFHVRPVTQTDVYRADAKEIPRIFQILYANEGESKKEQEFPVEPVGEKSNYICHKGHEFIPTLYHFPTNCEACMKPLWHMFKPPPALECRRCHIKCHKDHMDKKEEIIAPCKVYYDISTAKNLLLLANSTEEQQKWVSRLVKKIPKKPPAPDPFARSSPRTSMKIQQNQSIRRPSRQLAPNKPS
Experiment [10] has as its target Insulin-like growth factor 1 receptor (Homo sapiens, UniProt P08069).
Further: in the data inactive means no Kd found up to 30 µM.

Chain of Bone morphogenetic protein receptor type-1A (P36894 whole entry): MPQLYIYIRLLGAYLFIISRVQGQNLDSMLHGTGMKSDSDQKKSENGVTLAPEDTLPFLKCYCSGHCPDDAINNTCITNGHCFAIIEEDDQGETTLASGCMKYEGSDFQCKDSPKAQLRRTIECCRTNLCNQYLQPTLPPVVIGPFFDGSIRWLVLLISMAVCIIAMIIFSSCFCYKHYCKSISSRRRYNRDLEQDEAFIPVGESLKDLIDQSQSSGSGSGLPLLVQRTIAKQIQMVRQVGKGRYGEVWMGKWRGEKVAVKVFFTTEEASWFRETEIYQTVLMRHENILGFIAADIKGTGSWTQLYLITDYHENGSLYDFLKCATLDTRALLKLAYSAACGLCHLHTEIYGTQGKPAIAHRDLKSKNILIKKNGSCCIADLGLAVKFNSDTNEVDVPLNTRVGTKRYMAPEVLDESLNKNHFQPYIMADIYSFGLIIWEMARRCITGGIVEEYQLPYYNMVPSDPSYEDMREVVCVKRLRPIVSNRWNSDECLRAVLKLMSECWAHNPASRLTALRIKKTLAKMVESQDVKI

As to `CCN(CCCOc1ccc2c(Nc3cc(CC(=O)Nc4cccc(F)c4)n[nH]3)ncnc2c1)CCOP(=O)(O)O` [BARASERTIB], the Kd in [1], in [2], in experiment [3], in [4], in [5] and in experiment [6] was > 30 µM (inactive) each time. In addition, the Kd in experiment [7] and in [8] was > 30 µM (inactive) each time.

For `C=CCn1c(=O)c2cnc(Nc3ccc(N4CCN(C)CC4)cc3)nc2n1-c1cccc(C(C)(C)O)n1` [ADAVOSERTIB], the Kd in [1], in experiment [2], in experiment [3], in experiment [4], in experiment [5] and in experiment [6] was > 30 µM (inactive) throughout. In addition, the Kd in [9], in experiment [7] and in experiment [8] was > 30 µM (inactive) each time.

With `O=C(Nc1ccc(OC(F)(F)F)cc1)c1sccc1NCc1ccnc2ccccc12` [OSI-930], the Kd in [1], in experiment [2], in [3], in experiment [10], in experiment [4] and in experiment [5] was > 30 µM (inactive) each time. In addition, the Kd in experiment [9], in [7] and in [8] was > 30 µM (inactive) throughout.

As to `COc1cc2c(N3CCN(C(=O)Nc4ccc(OC(C)C)cc4)CC3)ncnc2cc1OCCCN1CCCCC1` [TANDUTINIB], the Kd in experiment [2], in experiment [3], in experiment [6] and in [8] was > 30 µM (inactive) throughout.

For `COc1cc2c(Oc3ccc4[nH]c(C)cc4c3F)ncnc2cc1OCCCN1CCCC1` [CEDIRANIB], the figures for the Kd in experiment [2], in experiment [3] and in [8] were > 30 µM (inactive), > 30 µM (inactive) and 2.61 µM, respectively.

Take `Cn1cnc2c(F)c(Nc3ccc(Br)cc3Cl)c(C(=O)NOCCO)cc21` [SELUMETINIB]: the Kd in experiment [2], in experiment [3], in experiment [6] and in [8] was > 30 µM (inactive) in each case.

For `COc1ccc(-c2ccc3ncc4c(c3c2)n(-c2ccc(N3CCNCC3)c(C(F)(F)F)c2)c(=O)n4C)cn1` [BGT-226 FREE BASE], the Kd – broadly, the concentration at which binding is half-saturated – in experiment [1] is > 30 µM (inactive); in experiment [2], 3.11 µM (active); in [3], > 30 µM (inactive); in [10], > 30 µM (inactive); in experiment [4], > 30 µM (inactive); in experiment [5], > 30 µM (inactive). For the same molecule, the Kd in experiment [9], in experiment [7] and in experiment [8] was > 30 µM (inactive) each time.

As for `CN(C)C/C=C/C(=O)Nc1cc2c(Nc3ccc(F)c(Cl)c3)ncnc2cc1O[C@H]1CCOC1` [AFATINIB], the Kd in [2], in experiment [3], in experiment [6] and in experiment [8] was > 30 µM (inactive) each time.

`CN(c1ncccc1CNc1nc(Nc2ccc3c(c2)CC(=O)N3)ncc1C(F)(F)F)S(C)(=O)=O` [PF-00562271]: the Kd in experiment [1], in experiment [2], in [3], in [4], in [5] and in [6] was > 30 µM (inactive) throughout. Moreover, the Kd in [7] and in experiment [8] was > 30 µM (inactive) in each case.

For `CC1(C)CNc2cc(NC(=O)c3cccnc3NCc3ccncc3)ccc21` [MOTESANIB], the Kd in experiment [2], in experiment [3], in experiment [6] and in [8] was > 30 µM (inactive) in each case.

`C[C@@]1(C(=O)Nc2ccc(F)nc2)CCCN1c1nc(Nc2cc(C3CC3)n[nH]2)c2cccn2n1` [BMS-754807]: the Kd in experiment [2], in experiment [3], in experiment [6] and in experiment [8] was > 30 µM (inactive) throughout.

`O=S(=O)(c1cccc2c(O)nccc12)N1CCCNCC1` [HYDROXYFASUDIL]: the Kd in experiment [1], in experiment [2], in experiment [3], in experiment [10], in experiment [4] and in [5] was > 30 µM (inactive) throughout. The Kd in [6], in experiment [7] and in experiment [8] was > 30 µM (inactive) each time.

Regarding `C[C@]1(O)C[C@@H](c2nc(-c3ccc4ccc(-c5ccccc5)nc4c3)c3c(N)nccn32)C1` [LINSITINIB], the Kd in experiment [1] is > 30 µM (inactive); in [2], 4.21 µM (active); in experiment [3] it was > 30 µM (inactive); in experiment [4], > 30 µM (inactive); in experiment [5] it was > 30 µM (inactive); in experiment [6], > 30 µM (inactive). The Kd in experiment [7] and in [8] was > 30 µM (inactive) each time.

In the case of `Cn1c(=O)n(-c2ccc(C(C)(C)C#N)cc2)c2c3cc(-c4cnc5ccccc5c4)ccc3ncc21` [DACTOLISIB], the Kd in experiment [1], in [2], in experiment [3], in experiment [4], in experiment [5] and in experiment [6] was > 30 µM (inactive) throughout. Also, the Kd in experiment [9], in experiment [7] and in experiment [8] was > 30 µM (inactive) in each case.
